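Test compounds were applied to cells in 96-well plates for 48 hours at 5 doses. TGI denotes the concentration required for complete inhibition of growth.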
Tests used:
Test in all cases: inhibition of tumour cell growth, NCI panel, 48 h
COLO 205 colon = system: COLO 205 colon
T-47D breast = system: T-47D breast
MOLT-4 leukemia = system: MOLT-4 leukemia
HCT-116 colon = system: HCT-116 colon
OVCAR-8 ovarian = system: OVCAR-8 ovarian
LOX IMVI melanoma = system: LOX IMVI melanoma
SW-620 colon = system: SW-620 colon
IGROV1 ovarian = system: IGROV1 ovarian
MALME-3M melanoma = system: MALME-3M melanoma
UACC-257 melanoma = system: UACC-257 melanoma
HCC-2998 colon = system: HCC-2998 colon
UACC-62 melanoma = system: UACC-62 melanoma
KM12 colon = system: KM12 colon
NCI-H522 lung = system: NCI-H522 lung
ACHN renal = system: ACHN renal
HT29 colon = system: HT29 colon
786-0 renal = system: 786-0 renal
NCI-H23 lung = system: NCI-H23 lung
SK-MEL-28 melanoma = system: SK-MEL-28 melanoma
RPMI-8226 leukemia = system: RPMI-8226 leukemia
OVCAR-4 ovarian = system: OVCAR-4 ovarian
PC-3 prostate = system: PC-3 prostate
CCRF-CEM leukemia = system: CCRF-CEM leukemia
MCF7 breast = system: MCF7 breast
A549 NSCLC = system: A549 NSCLC
SK-OV-3 ovarian = system: SK-OV-3 ovarian
OVCAR-3 ovarian = system: OVCAR-3 ovarian
DU-145 prostate = system: DU-145 prostate
HL-60(TB) leukemia = system: HL-60(TB) leukemia
SNB-75 CNS = system: SNB-75 CNS
HOP-62 NSCLC = system: HOP-62 NSCLC
MDA-N = system: MDA-N
SN12C renal = system: SN12C renal
NCI/ADR-RES ovarian = system: NCI/ADR-RES ovarian
SF-268 CNS = system: SF-268 CNS
EKVX NSCLC = system: EKVX NSCLC
UO-31 renal = system: UO-31 renal
SF-295 CNS = system: SF-295 CNS
BT-549 breast = system: BT-549 breast
HS 578T breast = system: HS 578T breast
OVCAR-5 ovarian = system: OVCAR-5 ovarian
SK-MEL-5 melanoma = system: SK-MEL-5 melanoma
CAKI-1 renal = system: CAKI-1 renal
NCI-H226 lung = system: NCI-H226 lung
RXF 393 renal = system: RXF 393 renal
K-562 leukemia = system: K-562 leukemia
SF-539 CNS = system: SF-539 CNS
SR leukemia = system: SR leukemia
HOP-92 NSCLC = system: HOP-92 NSCLC
HCT-15 colon = system: HCT-15 colon
NCI-H460 lung = system: NCI-H460 lung
M14 melanoma = system: M14 melanoma
A498 renal = system: A498 renal
MDA-MB-435 = system: MDA-MB-435
SK-MEL-2 melanoma = system: SK-MEL-2 melanoma
SNB-19 CNS = system: SNB-19 CNS
TK-10 renal = system: TK-10 renal

`O=C(Nc1c(Cl)cccc1Cl)c1c(Cl)c(Cl)c(Cl)c(Cl)c1-c1nc2ccccc2[nH]1` gave a TGI (COLO 205 colon) of over 100 µM, a TGI (T-47D breast) of over 100 µM and a TGI (MOLT-4 leukemia) of over 100 µM. It also gave a TGI (HCT-116 colon) of over 100 µM, a TGI (OVCAR-8 ovarian) of over 100 µM and a TGI (LOX IMVI melanoma) of over 100 µM. For the same molecule, the TGI (SW-620 colon) was over 100 µM, the TGI (IGROV1 ovarian) was over 100 µM and the TGI (MALME-3M melanoma) was over 100 µM. The TGI (UACC-257 melanoma) was over 100 µM, the TGI (HCC-2998 colon) was over 100 µM and the TGI (UACC-62 melanoma) was over 100 µM. For the same molecule, the TGI (KM12 colon) was over 100 µM, the TGI (NCI-H522 lung) was over 100 µM and the TGI (ACHN renal) was over 100 µM. For the same molecule, the TGI (HT29 colon) was over 100 µM, the TGI (786-0 renal) was over 100 µM and the TGI (NCI-H23 lung) was over 100 µM. For the same molecule, the TGI (SK-MEL-28 melanoma) was over 100 µM, the TGI (RPMI-8226 leukemia) was over 100 µM and the TGI (OVCAR-4 ovarian) was over 100 µM. For the same molecule, the TGI (PC-3 prostate) was over 100 µM, the TGI (CCRF-CEM leukemia) was over 100 µM and the TGI (MCF7 breast) was over 100 µM. For the same molecule, the TGI (A549 NSCLC) was over 100 µM, the TGI (SK-OV-3 ovarian) was over 100 µM and the TGI (OVCAR-3 ovarian) was over 100 µM. For the same molecule, the TGI (DU-145 prostate) was over 100 µM, the TGI (HL-60(TB) leukemia) was over 100 µM and the TGI (SNB-75 CNS) was 84.9 µM. It also gave a TGI (HOP-62 NSCLC) of over 100 µM, a TGI (MDA-N) of over 100 µM and a TGI (SN12C renal) of over 100 µM. It also gave a TGI (NCI/ADR-RES ovarian) of over 100 µM, a TGI (SF-268 CNS) of over 100 µM and a TGI (EKVX NSCLC) of over 100 µM. The TGI (UO-31 renal) was over 100 µM, the TGI (SF-295 CNS) was over 100 µM and the TGI (BT-549 breast) was over 100 µM. It also gave a TGI (HS 578T breast) of over 100 µM, a TGI (OVCAR-5 ovarian) of over 100 µM and a TGI (SK-MEL-5 melanoma) of over 100 µM. For the same molecule, the TGI (CAKI-1 renal) was over 100 µM, the TGI (NCI-H226 lung) was over 100 µM and the TGI (RXF 393 renal) was 45.2 µM. For the same molecule, the TGI (K-562 leukemia) was over 100 µM, the TGI (SF-539 CNS) was over 100 µM and the TGI (SR leukemia) was over 100 µM. For the same molecule, the TGI (HOP-92 NSCLC) was over 100 µM, the TGI (HCT-15 colon) was over 100 µM and the TGI (NCI-H460 lung) was over 100 µM. For the same molecule, the TGI (M14 melanoma) was over 100 µM, the TGI (A498 renal) was 54.6 µM and the TGI (MDA-MB-435) was over 100 µM. For the same molecule, the TGI (SK-MEL-2 melanoma) was over 100 µM.
In the case of `CC(=O)Oc1ccc2[nH]c3c(C)c4cccc-4ccc3c2c1`, the TGI (T-47D breast) is reported as 8.22 µM, the TGI (MOLT-4 leukemia) is reported as 9.82 µM and the TGI (HCT-116 colon) is reported as 4.31 µM. The TGI (OVCAR-8 ovarian) was 4.63 µM, the TGI (LOX IMVI melanoma) was 4.4 µM and the TGI (SW-620 colon) was 10.7 µM. For the same molecule, the TGI (IGROV1 ovarian) was 3.2 µM, the TGI (MALME-3M melanoma) was 3.63 µM and the TGI (UACC-257 melanoma) was 4.07 µM. The TGI (HCC-2998 colon) was 5.05 µM, the TGI (UACC-62 melanoma) was 3.42 µM and the TGI (KM12 colon) was 5.47 µM. The TGI (NCI-H522 lung) was 3.86 µM, the TGI (ACHN renal) was 3.33 µM and the TGI (HT29 colon) was 4.18 µM. For the same molecule, the TGI (786-0 renal) was 3.36 µM, the TGI (NCI-H23 lung) was 3.96 µM and the TGI (SK-MEL-28 melanoma) was 4.47 µM. For the same molecule, the TGI (RPMI-8226 leukemia) was 11 µM, the TGI (SNB-19 CNS) was 3.69 µM and the TGI (OVCAR-4 ovarian) was 3.5 µM. It also gave a TGI (PC-3 prostate) of 3.37 µM, a TGI (MCF7 breast) of 10.7 µM and a TGI (A549 NSCLC) of 4.7 µM. It also gave a TGI (SK-OV-3 ovarian) of 4.28 µM, a TGI (OVCAR-3 ovarian) of 3.64 µM and a TGI (DU-145 prostate) of 12.7 µM. The TGI (HL-60(TB) leukemia) was 6.87 µM, the TGI (HOP-62 NSCLC) was 4.8 µM and the TGI (MDA-N) was 4.93 µM. It also gave a TGI (SN12C renal) of 4.49 µM, a TGI (NCI/ADR-RES ovarian) of 5.33 µM and a TGI (SF-268 CNS) of 4.19 µM. It also gave a TGI (EKVX NSCLC) of 4.21 µM, a TGI (UO-31 renal) of 3.19 µM and a TGI (SF-295 CNS) of 4.32 µM. For the same molecule, the TGI (BT-549 breast) was 5.37 µM, the TGI (HS 578T breast) was 7.74 µM and the TGI (OVCAR-5 ovarian) was 4.14 µM. For the same molecule, the TGI (SK-MEL-5 melanoma) was 3.95 µM, the TGI (CAKI-1 renal) was 3.41 µM and the TGI (NCI-H226 lung) was 3.11 µM. For the same molecule, the TGI (TK-10 renal) was 3.57 µM, the TGI (RXF 393 renal) was 3.78 µM and the TGI (K-562 leukemia) was 11.5 µM. For the same molecule, the TGI (SR leukemia) was 34.6 µM, the TGI (HOP-92 NSCLC) was 4.17 µM and the TGI (HCT-15 colon) was 5 µM. It also gave a TGI (NCI-H460 lung) of 10.3 µM, a TGI (M14 melanoma) of 4.21 µM and a TGI (A498 renal) of 5.53 µM. The TGI (MDA-MB-435) was 3.81 µM and the TGI (SK-MEL-2 melanoma) was 3.66 µM.
